Source: paper PMC11939078, “TAK-994 mechanistic investigation into drug-induced liver injury” (Toxicological Sciences, 2025)
pIC50: −log10 of the molar value.

Tests used:
HepG2 cells [1] = experiment: HepG2 Glu/Gal 24-h cytotoxicity (mitochondrial toxicity); type: cell-based, human; settings: glucose or galactose medium
Procedure: (§1) Cytotoxicity of TAK-994 was evaluated in glucose or galactose medium after 24 h and in glucose medium after 72 h in HepG2 cells, with cryopreserved HepG2 cells thawed and seeded onto assay plates at 5,000 cells/well in glucose or galactose medium for the 24-h assay and at 2,500 cells/well in glucose medium for the 72-h assay. After ∼24 h of incubation at 37 °C in 5% CO2, the cells were incubated with test solutions under the same conditions for 24 h for the plate with 5,000 cells/well or 72 h for the plate with 2,500 cells/well. Cytotoxicity of TAK-994 was also assessed using HepG2 cells with CYP3A4 overexpression using a lentivirus vector. HepG2/CYP3A4 cells were incubated in media containing TAK-994 (0.09 to 200 μM), positive control aflatoxin B1 (0.04 to 80 μM), or 1.0% DMSO (negative control). In both cytotoxicity assays, adenosine triphosphate (ATP) content was assessed after incubation using a commercial luminescence assay (CellTiter-Glo; Promega Co., Ltd, WI, United States).
HepG2 cells (American Type Culture Collection [ATCC, VA, USA]) were acclimated to Dulbecco's Modified Eagle Medium (DMEM; Thermo Fisher Scientific, MA, USA) with either high glucose or high galactose and containing 10% FBS for 1 week then cryopreserved. […] After the incubation, CellTiter-Glo® (Promega Co., Ltd., WI, USA) was added to the assay plates, cells were incubated for 30 minutes, and luminescence was recorded to measure the ATP content using an EnVision plate reader (PerkinElmer Co., Ltd., MA, USA). The test compound TAK-994 was evaluated at concentrations of 0.046, 0.14, 0.41, 1.2, 3.7, 11, 33, and 100 μM. Positive controls rotenone and staurosporine were purchased from FUJIFILM Wako Pure Chemical Corporation (Osaka, Japan) and evaluated at concentrations of 0.046, 0.14, 0.41, 1.2, 3.7, 11, 33, and 100 μM in DMSO (rotenone) or 0.0046, 0.014, 0.041, 0.12, 0.37, 1.1 , 3.3, and 10 μM in DMSO (staurosporine). […]

HepG2 cells [2] = experiment: HepG2 72-h cytotoxicity assay (glucose medium, ATP content); type: cell-based, human
Procedure: as §1
HepG2 cells (American Type Culture Collection [ATCC, VA, USA]) were acclimated to Dulbecco's Modified Eagle Medium (DMEM; Thermo Fisher Scientific, MA, USA) with either high glucose or high galactose and containing 10% FBS for 1 week then cryopreserved. The cryopreserved HepG2 cells were thawed, cultured for 24 hours, then seeded at 5000 cells/well in glucose or galactose medium for the 24-hour assay and at 2500 cells/well in glucose medium for the 72-hour assay onto the assay plates. After approximately 24 hours of incubation at 37°C in 5% CO2, the cells were incubated with test solutions under the same conditions for 24 hours for the plate with 5000 cells/well or 72 hours for the plate with 2500 cells/well. After the incubation, CellTiter-Glo® (Promega Co., Ltd., WI, USA) was added to the assay plates, cells were incubated for 30 minutes, and luminescence was recorded to measure the ATP content using an EnVision plate reader (PerkinElmer Co., Ltd., MA, USA). The test compound TAK-994 was evaluated at concentrations of 0.046, 0.14, 0.41, 1.2, 3.7, 11, 33, and 100 μM. Positive controls rotenone and staurosporine were purchased from FUJIFILM Wako Pure Chemical Corporation (Osaka, Japan) and evaluated at concentrations of 0.046, 0.14, 0.41, 1.2, 3.7, 11, 33, and 100 μM in DMSO (rotenone) or 0.0046, 0.014, 0.041, 0.12, 0.37, 1.1 , 3.3, and 10 μM in DMSO (staurosporine). Two experiments were conducted at each concentration.
Inhibition rate (%) = (1-mean of sample values / mean of Max values) × 100, where Max values = vehicle control.

[3] = Plasma exposure in NT1 patients; type: in vivo, human
Hepatocyte spheroids = experiment: Hepatocyte spheroid (monoculture, no nonparenchymal cells) cytotoxicity, cellular ATP; type: cell-based, human
Procedure: Toxicology of TAK-994 was assessed using lnSphero’s 3D lnSight Human Liver models, based on N-acetyl-L-cysteine causality assay, glutathione depletion assay, and lipopolysaccharide (LPS)-sensitization assay. Hepatotoxicity was assessed in 7- and 14-day mono and co-culture models, in which cells were exposed to TAK-994 (0.1, 0.3, 1, 3.16, 10, 31.6, or 100 μM) […].
The test system was Human 3D InSight Liver Models, production ID hLiMT_589, cryopreserved primary human hepatocytes (Lot IPDH_18; single donor) in monoculture or in co-culture with cryopreserved primary human nonparenchymal cells (Lot IPHN_17; single donor). Human liver microtissues are composed of roughly 1000 hepatocytes and 1000 non-parenchymal live cells. Non-parenchymal liver cell fractions are expected to be composed of Kupffer cells and liver endothelial cells however, these were not identified.
Mono and co-culture model cells were exposed to TAK-994 (0.1, 0.3, 1, 3.16, 10, 31.6, or 100 μM in 0.5% DMSO) for 7 days (TAK-994 administered on Days 0 and 4) or 14 days (TAK-994 administered on Days 0, 5, and 9). Six replicates were tested for each condition. The vehicle control was 0.5% DMSO, and the positive control was chlorpromazine (0.1, 0.3, 1, 3.16, 10, 31.6, or 100 μM in DMSO). Cellular ATP content was measured in the cell lysate on Days 7 or 14 of treatment. LDH release was measured in the cell supernatant on Days 4 and 7 or on Days 5, 9, and 14 and normalized to lysed controls.
Intracellular ATP content in model lysates was measured with the CellTiter-Glo® 2.0 Cell Viability Assay (Catalogue No. G9243, Promega). The Bioluminescent LDH Release Toxicity Assay Kit (Catalogue No. J2380, Promega) was used to assess extracellular LDH release and normalized to lysed controls. ATP, LDH, GSH, and triglycerides were measured according to internal technical operating procedures.

CC(C)(O)C(=O)N1CC[C@H](NS(C)(=O)=O)[C@@H]1Cc1cccc(-c2cc(F)cc(F)c2)c1F.CC(C)(O)C(=O)N1CC[C@H](NS(C)(=O)=O)[C@@H]1Cc1cccc(-c2cc(F)cc(F)c2)c1F.O.O.O [TAK-994]
pIC50 (HepG2 cells [1]): < 4.00
pIC50 (HepG2 cells [2]): < 4.00
cytotoxicity margin (Cmax/IC50) (HepG2 cells [2]): > 100 ×
top test concentration (100 µM) relative to Cmax in patients (HepG2 cells [2]; human): ~100 fold
AUC24, ss in NT1 patients ([3]; 30 mg BID): 2,920 h*nM
Cmax ([3]; 30 mg BID): 408 nM
AUC24, ss in NT1 patients ([3]; 90 mg BID): 8,870 h*nM
Cmax ([3]; 90 mg BID): 948 nM
AUC24, ss in NT1 patients ([3]; 180 mg BID): 14,800 h*nM
Cmax ([3]; 180 mg BID): 1640 nM
loss of cellular ATP (Hepatocyte spheroids; 100 µM TAK-994, absence of nonparenchymal cells): ~50%
pIC50 (Hepatocyte spheroids; cellular ATP, read-out: IC50, hepatocyte spheroids (Fig. 2B)): < 4.00
